Results taken from paper PMC11033320, “Activation of p53 signaling and regression of breast and prostate carcinoma cells by spirooxindole-benzimidazole small molecules” (Frontiers in Pharmacology, 2024).

Tests used:
NCI-H522 = assay: NCI anticancer screening, Non-Small Cell Lung Cancer NCI-H522; type: cell-based; details: Homo sapiens; NCI-H522, 10 μM; read-out: % Growth Inhibition (GI %)
Description: (§1) The compound has been processed according to standard method NCI-60 Human Tumor Cell Lines Screen for organic compound at development therapeutic program (DTP). Requests for access to this national resource can be submitted online at: […]

NCI-H460 = assay: NCI anticancer screening, Non-Small Cell Lung Cancer NCI-H460; type: cell-based; details: Homo sapiens; NCI-H460, 10 μM; read-out: % Growth Inhibition (GI %)
Description: as §1

A549/ATCC = assay: NCI anticancer screening, Non-Small Cell Lung Cancer A549/ATCC; type: cell-based; details: Homo sapiens, read-out: % Growth Inhibition (GI %)
Description: as §1

HCC-2998 = assay: NCI anticancer screening, Colon Cancer HCC-2998; type: cell-based; details: Homo sapiens; HCC-2998, 10 μM; read-out: % Growth Inhibition (GI %)
Description: as §1

OVCAR-5 = assay: NCI anticancer screening, Ovarian Cancer OVCAR-5; type: cell-based; details: Homo sapiens; OVCAR-5, 10 μM; read-out: % Growth Inhibition (GI %)
Description: as §1

UACC-62 = assay: NCI anticancer screening, Melanoma UACC-62; type: cell-based; details: Homo sapiens; UACC-62, 10 μM; read-out: % Growth Inhibition (GI %)
Description: as §1

NCI-H322M = assay: NCI anticancer screening, Non-Small Cell Lung Cancer NCI-H322M; type: cell-based; details: Homo sapiens, read-out: % Growth Inhibition (GI %)
Description: as §1

SF-539 = assay: NCI anticancer screening, CNS Cancer SF-539; type: cell-based; details: Homo sapiens; SF-539, 10 μM; read-out: % Growth Inhibition (GI %)
Description: as §1

MCF7 = assay: NCI anticancer screening, Breast Cancer MCF7; type: cell-based; details: Homo sapiens; MCF7, 10 μM; read-out: % Growth Inhibition (GI %)
Description: as §1

MALME-3M = assay: NCI anticancer screening, Melanoma MALME-3M; type: cell-based; details: Homo sapiens, read-out: % Growth Inhibition (GI %)
Description: as §1

OVCAR-3 = assay: NCI anticancer screening, Ovarian Cancer OVCAR-3; type: cell-based; details: Homo sapiens; OVCAR-3, 10 μM; read-out: % Growth Inhibition (GI %)
Description: as §1

BT-549 = assay: NCI anticancer screening, Breast Cancer BT-549; type: cell-based; details: Homo sapiens; BT-549, 10 μM; read-out: % Growth Inhibition (GI %)
Description: as §1

HS 578T = assay: NCI anticancer screening, Breast Cancer HS 578T; type: cell-based; details: Homo sapiens, read-out: % Growth Inhibition (GI %)
Description: as §1

CAKI-1 = assay: NCI anticancer screening, Renal Cancer CAKI-1; type: cell-based; details: Homo sapiens; CAKI-1, 10 μM; read-out: % Growth Inhibition (GI %)
Description: as §1

MDA-MB-468 = assay: NCI anticancer screening, Breast Cancer MDA-MB-468; type: cell-based; details: Homo sapiens, read-out: % Growth Inhibition (GI %)
Description: as §1

NCI-H23 = assay: NCI anticancer screening, Non-Small Cell Lung Cancer NCI-H23; type: cell-based; details: Homo sapiens; NCI-H23, 10 μM; read-out: % Growth Inhibition (GI %)
Description: as §1

HCT-15 = assay: NCI anticancer screening, Colon Cancer HCT-15; type: cell-based; details: Homo sapiens; HCT-15, 10 μM; read-out: % Growth Inhibition (GI %)
Description: as §1

LOX IMVI = assay: NCI anticancer screening, Melanoma LOX IMVI; type: cell-based; details: Homo sapiens, read-out: % Growth Inhibition (GI %)
Description: as §1

SK-MEL-2 = assay: NCI anticancer screening, Melanoma SK-MEL-2; type: cell-based; details: Homo sapiens; SK-MEL-2, 10 μM; read-out: % Growth Inhibition (GI %)
Description: as §1

MOLT-4 = assay: NCI anticancer screening, Leukemia MOLT-4; type: cell-based; details: Homo sapiens; MOLT-4, 10 μM; read-out: % Growth Inhibition (GI %)
Description: as §1

RPMI-8226 = assay: NCI anticancer screening, Leukemia RPMI-8226; type: cell-based; details: Homo sapiens; RPMI-8226, 10 μM; read-out: % Growth Inhibition (GI %)
Description: as §1

HT29 = assay: NCI anticancer screening, Colon Cancer HT29; type: cell-based; details: Homo sapiens, HT-29; HT29, 10 μM; read-out: % Growth Inhibition (GI %)
Description: as §1

IGROV1 = assay: NCI anticancer screening, Ovarian Cancer IGROV1; type: cell-based; details: Homo sapiens, IGROV-1; IGROV1, 10 μM; read-out: % Growth Inhibition (GI %)
Description: as §1

UACC-257 = assay: NCI anticancer screening, Melanoma UACC-257; type: cell-based; details: Homo sapiens; UACC-257, 10 μM; read-out: % Growth Inhibition (GI %)
Description: as §1

K-562 = assay: NCI anticancer screening, Leukemia K-562; type: cell-based; details: Homo sapiens, K562; K-562, 10 μM; read-out: % Growth Inhibition (GI %)
Description: as §1

M14 = assay: NCI anticancer screening, Melanoma M14; type: cell-based; details: Homo sapiens; M14, 10 μM; read-out: % Growth Inhibition (GI %)
Description: as §1

[1] = MTT cytotoxicity to normal human lung fibroblast Wi-38 cell line; type: cell-based; details: Wi-38 normal lung fibroblast cells, mean ± SEM, read-out: percentage of Wi-38 viability
Experimental: Normal human lung fibroblast Wi-38 cell line was used to detect cytotoxicity of the studied compounds (Table S8). Wi-38 cell line was cultured in DMEM medium-contained 10% fetal bovine serum (FBS), seeded as 5x10^3 cells per well in 96-well cell culture plate and incubated at 37 °C in 5% CO2 incubator. After 24 h for cell attachment, serial concentrations of the synthetic compounds were incubated with Wi-38 cells for 72 h. Cell viability was assayed by MTT method (Mosmann, 1983). Twenty microliters of 5 mg/ml MTT (Sigma, USA) was added to each well and the plate was incubated at 37 °C for 3 h. Then MTT solution was removed, 100 µl DMSO was added and the absorbance of each well was measured with a microplate reader (BMG LabTech, Germany) at 570 nm.

T-47D = assay: NCI anticancer screening, Breast Cancer T-47D; type: cell-based; details: Homo sapiens, T47D, read-out: % Growth Inhibition (GI %)
Description: as §1

OVCAR-4 = assay: NCI anticancer screening, Ovarian Cancer OVCAR-4; type: cell-based; details: Homo sapiens; OVCAR-4, 10 μM; read-out: % Growth Inhibition (GI %)
Description: as §1

UO-31 = assay: NCI anticancer screening, Renal Cancer UO-31; type: cell-based; details: Homo sapiens; UO-31, 10 μM; read-out: % Growth Inhibition (GI %)
Description: as §1

ACHN = assay: NCI anticancer screening, Renal Cancer ACHN; type: cell-based; details: Homo sapiens, read-out: % Growth Inhibition (GI %)
Description: as §1

SR = assay: NCI anticancer screening, Leukemia SR; type: cell-based; details: Homo sapiens, read-out: % Growth Inhibition (GI %)
Description: as §1

SK-MEL-28 = assay: NCI anticancer screening, Melanoma SK-MEL-28; type: cell-based; details: Homo sapiens; SK-MEL-28, 10 μM; read-out: % Growth Inhibition (GI %)
Description: as §1

| SMILES | inhibition at 10 µM (NCI-H522) [%] | inhibition at 10 µM (NCI-H460) [%] | inhibition at 10 µM (A549/ATCC) [%] | inhibition at 10 µM (HCC-2998) [%] | inhibition at 10 µM (OVCAR-5) [%] | inhibition at 10 µM (UACC-62) [%] | inhibition at 10 µM (NCI-H322M) [%] | inhibition at 10 µM (SF-539) [%] | inhibition at 10 µM (MCF7) [%] | inhibition at 10 µM (MALME-3M) [%] | inhibition at 10 µM (OVCAR-3) [%] | inhibition at 10 µM (BT-549) [%] | inhibition at 10 µM (HS 578T) [%] | inhibition at 10 µM (CAKI-1) [%] | inhibition at 10 µM (MDA-MB-468) [%] | inhibition at 10 µM (NCI-H23) [%] | inhibition at 10 µM (HCT-15) [%] | inhibition at 10 µM (LOX IMVI) [%] | inhibition at 10 µM (SK-MEL-2) [%] | inhibition at 10 µM (MOLT-4) [%] | other results |
| --- | --- | --- | --- | --- | --- | --- | --- | --- | --- | --- | --- | --- | --- | --- | --- | --- | --- | --- | --- | --- | --- |
| Cc1ccc([C@@H]2C3CSCN3[C@]3(C(=O)Nc4ccccc43)[C@H]2C(=O)c2nc3ccccc3[nH]2)cc1 (mixture of isomers) [Compound 6d, (3S,6′R)-6'-(1H-Benzo [d]imidazole-2-carbonyl)-7'-(p-tolyl)-3′,6′,7′,7a′-tetrahydro-1′H-spiro [indoline-3.5′-pyrrolo [1,2-c]thiazol]-2-one] | 84.3 | 84.5 | 75.4 | 94.9 | 95.2 | 78 | 83.1 | 81.9 | 70.4 | 85.3 | 89 | 96.2 | 78.6 | 54.5 | 63.5 | 91.2 | 83.6 | 82 | 93.6 | 78.5 | inhibition at 10 µM (RPMI-8226): 80.3%; inhibition at 10 µM (HT29): 69.2%; inhibition at 10 µM (IGROV1): 75%; inhibition at 10 µM (UACC-257): 80.6%; inhibition at 10 µM (K-562): 81.6%; inhibition at 10 µM (M14): 74.7%; viability at 72 h, 5 µM [1]: > 81%; inhibition at 10 µM (T-47D): 68.8%; inhibition at 10 µM (OVCAR-4): 62.4%; inhibition at 10 µM (UO-31): 54.3%; inhibition at 10 µM (ACHN): 88.9%; inhibition at 10 µM (SR): 102%; inhibition at 10 µM (SK-MEL-28): 98.8% |
| CN(C)c1ccc([C@@H]2C3CSCN3[C@]3(C(=O)Nc4ccccc43)[C@H]2C(=O)c2nc3ccccc3[nH]2)cc1 (stereo partly drawn) [Compound 6k, (3S,6′R)-6'-(1H-Benzo [d]imidazole-2-carbonyl)-7'-(4-(dimethylamino)phenyl)-3′,6′,7′,7a′-tetrahydro-1′H-spiro [indoline-3.5′-pyrrolo [1,2-c]thiazol]-2-one] | 87.9 | 102 | 94.2 | 102 | 95.6 | 84.4 | 99.8 | 99.6 | 93.6 | 94.7 | 103 | 108 | 91.7 | 85.8 | 99.8 | 94.3 | 99.1 | 94.2 | 106 | 85.6 | inhibition at 10 µM (HT29): 99.3%; inhibition at 10 µM (IGROV1): 89.8%; inhibition at 10 µM (UACC-257): 90.2%; inhibition at 10 µM (K-562): 92.2%; melting point: 178 to 180 °C; inhibition at 10 µM (M14): 103%; viability at 72 h, 5 µM [1]: 38.6 ± 3.02%; inhibition at 10 µM (T-47D): 83%; inhibition at 10 µM (OVCAR-4): 91.5%; inhibition at 10 µM (UO-31): 73.4%; inhibition at 10 µM (ACHN): 99%; inhibition at 10 µM (SR): 84.3%; inhibition at 10 µM (SK-MEL-28): 96.1% |
| O=C(c1nc2ccccc2[nH]1)[C@H]1[C@H](c2ccccc2)C2CSCN2[C@]12C(=O)Nc1ccccc12 (mixture of isomers) [Compound 6a, (3S,6′R)-6'-(1H-benzo [d]imidazole-2-carbonyl)-7′-phenyl-3′,6′,7′,7a′-tetrahydro-1′H-spiro [indoline-3.5′-pyrrolo [1,2-c]thiazol]-2-one] | 93.7 | 106 | 98.7 | 109 | 104 | 95.7 | 98.1 | 95.1 | 98.1 | 101 | 110 | 102 | 103 | 86 | 100 | 104 | 109 | 98.7 | 101 | 100 | inhibition at 10 µM (RPMI-8226): 111%; inhibition at 10 µM (HT29): 98.8%; inhibition at 10 µM (IGROV1): 91.4%; inhibition at 10 µM (UACC-257): 97.3%; inhibition at 10 µM (K-562): 105%; inhibition at 10 µM (M14): 107%; viability at 72 h, 5 µM [1]: > 81%; inhibition at 10 µM (T-47D): 88%; inhibition at 10 µM (OVCAR-4): 108%; inhibition at 10 µM (UO-31): 77.2%; inhibition at 10 µM (ACHN): 99.5%; inhibition at 10 µM (SR): 94.2%; inhibition at 10 µM (SK-MEL-28): 103% |
